Assay results reported in patent US10000451B2, “MAP4K4 (HGK) inhibitors” (SRI INTERNATIONAL, priority 2015, dated 2018).

Legend:
MAP4K4 = MAP4K4 (Homo sapiens, UniProt O95819); experiment: MAP4K4 kinase assay (in-house); type: biochemical
Excerpt: Signaling pathways mediating anticancer activity. […] We established the MAP4K4 kinase assay in-house and confirmed that the compounds are indeed potent MAP4K4 inhibitors.

BT549 = experiment: Breast cancer cell line growth inhibition; type: cell-based; settings: Homo sapiens, BT-549; BT549, triple negative; read-out: IC50 against breast cancer cell lines
Excerpt: (§1) Generally, their potency is positively correlated with MAP4K4 expression in cancer cell lines.

HS578T = experiment: Breast cancer cell line growth inhibition; type: cell-based; settings: Homo sapiens, Hs-578T, triple negative, read-out: IC50 against breast cancer cell lines
Excerpt: as §1

MCF-7 = experiment: Breast cancer cell line growth inhibition; type: cell-based; settings: Homo sapiens, MCF7; MCF-7, ER (+); read-out: IC50 against breast cancer cell lines
Excerpt: as §1

MDA-MB-231 = experiment: Breast cancer cell line growth inhibition; type: cell-based; settings: Homo sapiens; MDA-MB-231, triple negative; read-out: IC50 against breast cancer cell lines
Excerpt: as §1

T47D = experiment: Breast cancer cell line growth inhibition; type: cell-based; settings: Homo sapiens, ER (+), read-out: IC50 against breast cancer cell lines
Excerpt: as §1

DU-145 = experiment: Prostate cancer cell proliferation assay; type: cell-based; settings: Homo sapiens; DU-145, 72 hours; read-out: IC50 against prostate cancer cell lines
Excerpt: (§2) The dose-response curves of cell growth inhibition were consistent.
(§3) Cell proliferation assays.

LNCaP = experiment: Prostate cancer cell proliferation assay; type: cell-based; settings: Homo sapiens, 72 hours, read-out: IC50 against prostate cancer cell lines
Excerpt: as §2, §3

PC-3 = experiment: Prostate cancer cell proliferation assay; type: cell-based; settings: Homo sapiens; PC-3, 72 hours; read-out: IC50 against prostate cancer cell lines
Excerpt: as §2, §3

A498 = experiment: Activity against cancer cell lines; type: cell-based; settings: Homo sapiens
Excerpt: (§4) Exemplary data is shown below.

ACHN = experiment: Activity against cancer cell lines; type: cell-based; settings: Homo sapiens
Excerpt: as §4

ADRRES = experiment: Activity against cancer cell lines; type: cell-based
Excerpt: as §4

CAKI1 = experiment: Activity against cancer cell lines; type: cell-based; settings: Homo sapiens, CAKI-1
Excerpt: as §4

HCT15 = experiment: Activity against cancer cell lines; type: cell-based; settings: Homo sapiens, HCT-15
Excerpt: as §4

HL60 = experiment: Activity against cancer cell lines; type: cell-based
Excerpt: as §4

LOXIMVI = experiment: Activity against cancer cell lines; type: cell-based; settings: Homo sapiens, LOX IMVI
Excerpt: as §4

M14 = experiment: Activity against cancer cell lines; type: cell-based; settings: Homo sapiens
Excerpt: as §4

MCF7 = experiment: Activity against cancer cell lines; type: cell-based; settings: Homo sapiens
Excerpt: as §4

MDAMB435 = experiment: Activity against cancer cell lines; type: cell-based; settings: Homo sapiens, MDA-MB-435
Excerpt: as §4

MOLT4 = experiment: Activity against cancer cell lines; type: cell-based; settings: Homo sapiens, MOLT-4
Excerpt: as §4

NCIH522 = experiment: Activity against cancer cell lines; type: cell-based; settings: Homo sapiens, NCI-H522
Excerpt: as §4

OVCAR4 = experiment: Activity against cancer cell lines; type: cell-based
Excerpt: as §4

RXF393 = experiment: Activity against cancer cell lines; type: cell-based; settings: Homo sapiens, RXF 393
Excerpt: as §4

SF295 = experiment: Activity against cancer cell lines; type: cell-based; settings: Homo sapiens, SF-295
Excerpt: as §4

SF539 = experiment: Activity against cancer cell lines; type: cell-based; settings: Homo sapiens, SF-539
Excerpt: as §4

SKMEL2 = experiment: Activity against cancer cell lines; type: cell-based; settings: Homo sapiens, SK-MEL-2
Excerpt: as §4

SKMEL5 = experiment: Activity against cancer cell lines; type: cell-based; settings: Homo sapiens, SK-MEL-5
Excerpt: as §4

SNB75 = experiment: Activity against cancer cell lines; type: cell-based; settings: Homo sapiens, SNB-75, SNB75
Excerpt: as §4

UO31 = experiment: Activity against cancer cell lines; type: cell-based; settings: Homo sapiens, UO-31
Excerpt: as §4

[1] = test system: PC-3 prostate cancer xenografts; experiment: Antitumor activity in PC-3 xenografts; type: in vivo; settings: nude mice
Procedure: In vivo efficacy studies: antitumor and antimetastatic effects against androgen-insensitive prostate cancer. Antitumor activity was tested in nude mice bearing aggressive, androgen-independent PC-3 prostate cancer xenografts. Docetaxel, a standard treatment for metastatic prostate cancer, was included in the study as a positive control. Docetaxel was administered at its maximum tolerated dose (MTD) via intraperitoneal (IP) (Q3Dx2; Monday, Friday). Mice were orally treated with compound in 0.5% HPC with 4 different treatment regimens. The control group was treated with vehicle (0.5% HPC) only. Treatment was initiated when average tumor volume reached 100 mm^3 (10 mice per group).
The compounds show a significant dose-dependent growth inhibition of prostate tumor. Docetaxel at its MTD (7.5 mg/kg; Q3Dx2) produces only 10-15% growth inhibition. […] Treatment with representative compounds (12.5, 25 and 50 mg/kg/day) caused a significant dose-dependent growth reduction of PC-3 tumors.

MAP4K4, sequence (O95819 whole entry): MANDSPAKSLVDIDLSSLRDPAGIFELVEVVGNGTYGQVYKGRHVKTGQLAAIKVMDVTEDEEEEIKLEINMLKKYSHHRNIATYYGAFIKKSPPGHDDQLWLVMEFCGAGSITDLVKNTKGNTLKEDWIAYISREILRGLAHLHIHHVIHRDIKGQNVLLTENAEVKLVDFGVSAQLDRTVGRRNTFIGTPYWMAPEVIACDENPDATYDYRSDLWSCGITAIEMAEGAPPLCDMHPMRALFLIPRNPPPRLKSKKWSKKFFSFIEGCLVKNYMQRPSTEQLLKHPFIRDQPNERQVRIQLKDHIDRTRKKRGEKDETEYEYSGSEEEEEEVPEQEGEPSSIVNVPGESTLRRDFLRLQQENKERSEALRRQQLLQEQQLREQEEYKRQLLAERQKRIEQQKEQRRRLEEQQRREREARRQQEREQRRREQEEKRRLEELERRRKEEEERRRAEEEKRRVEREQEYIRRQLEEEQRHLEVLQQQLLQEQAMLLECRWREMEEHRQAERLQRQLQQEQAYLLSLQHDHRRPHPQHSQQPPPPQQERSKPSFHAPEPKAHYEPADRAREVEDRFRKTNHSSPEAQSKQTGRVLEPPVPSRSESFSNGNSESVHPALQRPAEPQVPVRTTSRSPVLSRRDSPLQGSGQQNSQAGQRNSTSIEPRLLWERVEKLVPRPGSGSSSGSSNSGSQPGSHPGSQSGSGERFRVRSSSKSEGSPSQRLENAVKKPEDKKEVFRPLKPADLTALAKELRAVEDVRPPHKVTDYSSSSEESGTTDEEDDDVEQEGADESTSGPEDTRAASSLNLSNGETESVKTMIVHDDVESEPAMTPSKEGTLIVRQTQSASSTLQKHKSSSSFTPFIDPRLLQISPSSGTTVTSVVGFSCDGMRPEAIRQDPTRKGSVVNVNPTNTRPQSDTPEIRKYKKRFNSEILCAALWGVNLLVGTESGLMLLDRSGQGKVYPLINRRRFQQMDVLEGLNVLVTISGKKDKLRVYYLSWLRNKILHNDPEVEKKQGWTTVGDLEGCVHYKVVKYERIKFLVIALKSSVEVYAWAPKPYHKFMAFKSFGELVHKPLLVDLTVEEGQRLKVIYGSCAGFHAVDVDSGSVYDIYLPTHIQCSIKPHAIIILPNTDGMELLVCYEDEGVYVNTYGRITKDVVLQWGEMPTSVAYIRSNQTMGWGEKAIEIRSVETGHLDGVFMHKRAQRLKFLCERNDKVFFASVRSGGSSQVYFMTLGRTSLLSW

Q: For COc1ccc2[nH]c(C(=O)c3ccc4[nH]ncc4c3)c(Cl)c2c1 [Cmpd 23, (3-chloro-5-methoxy-1H-indol-2-yl)(1H-indazol-5-yl)methanone], which IC50 (MAP4K4) is on record?
A: 0.41 µM

Q: And the IC50 (BT549)?
A: 0.023 µM

Q: What about the IC50 (HS578T) of the same compound?
A: 0.029 µM

Q: And the IC50 (MCF-7)?
A: 0.114 µM

Q: And the IC50 (MDA-MB-231)?
A: 0.028 µM

Q: What about the IC50 (T47D) of the same compound?
A: 0.044 µM

Q: What about the IC50 (DU-145) of the same compound?
A: 0.053 µM

Q: What about the IC50 (LNCaP) of the same compound?
A: 0.028 µM

Q: And the IC50 (PC-3)?
A: 0.02 µM

Q: Which IC50 (MAP4K4) does the source give for COc1ccc2[nH]c(C(=O)c3ccc4[nH]ccc4c3)c(C)c2c1 [Cmpd 5, (1H-indol-5-yl)(5-methoxy-3-methyl-1H-indol-2-yl)methanone] here?
A: 0.3 µM

Q: COc1ccc2[nH]c(C(=O)c3ccc4[nH]nc(F)c4c3)cc2c1 [Cmpd 21, (3-fluoro-1H-indazol-5-yl)(5-methoxy-1H-indol-2-yl)methanone] was tested. Which IC50 (MAP4K4) did it give?
A: 0.1 µM

Q: For CCc1n[nH]c2ccc(C(=O)c3cc4cc(OC)ccc4[nH]3)cc12 [Cmpd 19, (3-ethyl-1H-indazol-5-yl)(5-methoxy-1H-indol-2-yl)methanone], which IC50 (MAP4K4) is on record?
A: 0.009 µM

Q: Cc1c[nH]c2ccc(C(=O)c3cc4cc(O)ccc4[nH]3)cc12 [Cmpd 12, (5-hydroxy-1H-indol-2-yl)(3-methyl-1H-indol-5-yl)methanone] was tested. Which IC50 (MAP4K4) did it give?
A: 1 µM

Q: COc1ccc2[nH]c(C(=O)c3ccc4[nH]nnc4c3)cc2c1 [Cmpd 36, (1H-benzo[d][1,2,3]triazol-5-yl)(5-methoxy-1H-indol-2-yl)methanone] was tested. Which IC50 (MAP4K4) did it give?
A: 0.57 µM

Q: With COc1ccc2[nH]c(C(=O)c3ccc4[nH]cc(Cl)c4c3)cc2c1 [Cmpd 9, (3-chloro-1H-indol-5-yl)(5-methoxy-1H-indol-2-yl)methanone] as the compound, how does the IC50 (MAP4K4) read?
A: 1.7 µM

Q: Which IC50 (A498) does the source give for COc1ccc2[nH]c(C(=NO)c3ccc4[nH]ccc4c3)cc2c1 [Cmpd 37, (1H-indol-5-yl)(5-methoxy-1H-indol-2-yl)methanone oxime] here?
A: 0.33 µM

Q: And the IC50 (ACHN)?
A: 0.76 µM

Q: And the IC50 (ADRRES)?
A: 0.064 µM

Q: What about the IC50 (CAKI1) of the same compound?
A: 0.067 µM

Q: And the IC50 (HCT15)?
A: 0.068 µM

Q: And the IC50 (HL60; HL60)?
A: 0.078 µM

Q: And the IC50 (HL60; Homo sapiens, HL-60, HL60)?
A: 0.081 µM

Q: What about the IC50 (LOXIMVI) of the same compound?
A: 0.44 µM

Q: And the IC50 (M14)?
A: 0.11 µM

Q: And the IC50 (MCF7)?
A: 0.085 µM

Q: And the IC50 (MDAMB435)?
A: 0.066 µM

Q: What about the IC50 (MOLT4) of the same compound?
A: 0.12 µM

Q: And the IC50 (NCIH522)?
A: 0.1 µM

Q: What about the IC50 (OVCAR4; Homo sapiens, OVCAR-4, OVCAR4) of the same compound?
A: 0.15 µM

Q: And the IC50 (OVCAR4; OVCAR4)?
A: 0.11 µM

Q: And the IC50 (RXF393)?
A: 0.14 µM

Q: And the IC50 (SF295)?
A: 0.25 µM

Q: And the IC50 (SF539)?
A: 0.17 µM

Q: What about the IC50 (SKMEL2) of the same compound?
A: 0.58 µM

Q: What about the IC50 (SKMEL5) of the same compound?
A: 0.21 µM

Q: And the IC50 (SNB75)?
A: 0.11 µM

Q: And the IC50 (UO31)?
A: 0.69 µM

Q: Which results are given for CC(=O)O[C@@]12CO[C@@H]1C[C@H](O)[C@@]1(C)C(=O)[C@H](O)C3=C(C)[C@@H](OC(=O)[C@H](O)[C@@H](NC(=O)OC(C)(C)C)c4ccccc4)C[C@@](O)([C@@H](OC(=O)c4ccccc4)[C@H]21)C3(C)C [Docetaxel, reference compound]?
A: IC50 (DU-145): 0.072 µM; IC50 (LNCaP): 0.031 µM; IC50 (PC-3): 0.095 µM; tumor growth inhibition ([1]; PC-3 xenografts, MTD 7.5 mg/kg IP Q3Dx2): 10-15%; lethal toxicity ([1]; 7.5 mg/kg IP, after the 4th injection): mice died on Day 13 due to lethal toxicity

Q: For COc1cc2cc(C(=O)c3ccc4[nH]nc(C)c4c3)[nH]c2cn1 [Cmpd 31, (5-methoxy-1H-pyrrolo[2,3-c]pyridin-2-yl)(3-methyl-1H-indazol-5-yl)methanone], which IC50 (MAP4K4) is on record?
A: 0.013 µM

Q: With COc1ccc2[nH]c(C(=O)c3cnc4[nH]ccc4c3)cc2c1 [Cmpd 33, (5-methoxy-1H-indol-2-yl)(1H-pyrrolo[2,3-b]pyridin-5-yl)methanone] as the compound, how does the IC50 (MAP4K4) read?
A: 0.046 µM

Q: With COc1ccc2[nH]c(C(=O)c3ccc4[nH]nc(CN5CCOCC5)c4c3)cc2c1 [Cmpd 22, (5-methoxy-1H-indol-2-yl)(3-(morpholinomethyl)-1H-indazol-5-yl)methanone] as the compound, how does the IC50 (MAP4K4) read?
A: 21 µM

Q: Which IC50 (MAP4K4) does the source give for COc1cccc2[nH]c(C(=O)c3ccc4[nH]nc(C)c4c3)cc12 [Cmpd 29, (4-methoxy-1H-indol-2-yl)(3-methyl-1H-indazol-5-yl)methanone] here?
A: 0.65 µM

Q: What does the source list for COc1cc2cc(C(=O)c3ccc4[nH]ccc4c3)[nH]c2cc1OC [Cmpd 15, (5,6-dimethoxy-1H-indol-2-yl)(1H-indol-5-yl)methanone]?
A: IC50 (BT549): 0.017 µM; IC50 (HS578T): 0.016 µM; IC50 (MCF-7): 0.123 µM; IC50 (MDA-MB-231): 0.021 µM; IC50 (T47D): 0.03 µM; IC50 (DU-145): 0.035 µM; IC50 (LNCaP): 0.021 µM; IC50 (PC-3): 0.017 µM

Q: Which IC50 (BT549) does the source give for CC(=O)O[C@H]1C(=O)[C@@]2(C)[C@H]([C@H](OC(=O)c3ccccc3)[C@]3(O)C[C@H](OC(=O)[C@H](O)[C@@H](NC(=O)c4ccccc4)c4ccccc4)C(C)=C1C3(C)C)[C@]1(OC(C)=O)CO[C@@H]1C[C@@H]2O [Paclitaxel, reference compound] here?
A: 0.151 µM

Q: What about the IC50 (HS578T) of the same compound?
A: 0.148 µM

Q: What about the IC50 (MCF-7) of the same compound?
A: 0.156 µM

Q: What about the IC50 (MDA-MB-231) of the same compound?
A: 0.153 µM

Q: And the IC50 (T47D)?
A: 0.152 µM

Q: With COc1ccc2[nH]c(C(=O)c3ccc4[nH]ncc4c3)cc2c1 [Cmpd 17, (1H-indazol-5-yl)(5-methoxy-1H-indol-2-yl)methanone] as the compound, how does the IC50 (MAP4K4) read?
A: 0.26 µM

Q: And the IC50 (BT549)?
A: 0.009 µM

Q: What about the IC50 (HS578T) of the same compound?
A: 0.01 µM

Q: And the IC50 (MCF-7)?
A: 0.053 µM

Q: What about the IC50 (MDA-MB-231) of the same compound?
A: 0.01 µM

Q: And the IC50 (T47D)?
A: 0.017 µM

Q: What about the IC50 (DU-145) of the same compound?
A: 0.014 µM

Q: What about the IC50 (LNCaP) of the same compound?
A: 0.009 µM

Q: What about the IC50 (PC-3) of the same compound?
A: 0.006 µM

Q: Which IC50 (MAP4K4) does the source give for COc1ccc2[nH]c(C(=O)c3ccc4[nH]c(C(F)(F)F)nc4c3)cc2c1 [Cmpd 35, (5-methoxy-1H-indol-2-yl)(2-(trifluoromethyl)-1H-benzo[d]imidazol-5-yl)methanone] here?
A: 7.5 µM

Q: For COc1cccc2cc(C(=O)c3ccc4[nH]nc(C)c4c3)[nH]c12 [Cmpd 28, (7-methoxy-1H-indol-2-yl)(3-methyl-1H-indazol-5-yl)methanone], which IC50 (MAP4K4) is on record?
A: 0.65 µM

Q: How did the IC50 (MAP4K4) turn out when COc1ccc2[nH]c(C(=O)c3ccc4[nH]cc(C)c4c3)cc2c1 [Cmpd 4, (5-methoxy-1H-indol-2-yl)(3-methyl-1H-indol-5-yl)methanone] was run?
A: 0.38 µM

Q: With COc1ccc2[nH]c(C(=O)c3ccc4[nH]nc(Cl)c4c3)cc2c1 [Cmpd 20, (3-chloro-1H-indazol-5-yl)(5-methoxy-1H-indol-2-yl)methanone] as the compound, how does the IC50 (MAP4K4) read?
A: 0.31 µM

Q: For COc1ccc2[nH]c(C(=O)c3ccc4[nH]ncc4c3)cc2c1Cl [Cmpd 24, (4-chloro-5-methoxy-1H-indol-2-yl)(1H-indazol-5-yl)methanone], which IC50 (MAP4K4) is on record?
A: 12 µM
